Measured values from the supplement of paper PMC6411743.

Compound: Nc1ncnc2c1ncn2[C@@H]1O[C@H](COP(=O)(O)OP(=O)(O)OP(=O)(O)O)[C@@H](O)[C@H]1O [adenosine triphosphate]
Assay: pEC50 of ATP-induced change in protein thermal stability (2D-TPP)
Procedure, shortened: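 Each of three independent experiments used Jurkat crude lysate given five concentrations including vehicle (10 min, room temperature), followed by 3 min at one of 12 temperatures from 42 to 63.9 °C and NP40 with benzonase (60 min, 4 °C). TMT LC-MS/MS quantified soluble protein after ultracentrifugation, expressed as fold changes against vehicle at each temperature with median normalisation. For pEC50, dose-response curves were fitted per replicate over adjacent temperature pairs, and hits were called through permutation-based false discovery rate control.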
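Also: lysate dosed with Na-ATP at 0 0.005 0.05 0.5 and 2 mM.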

UniProt Q5JRX3, sequence (Q5JRX3 whole entry): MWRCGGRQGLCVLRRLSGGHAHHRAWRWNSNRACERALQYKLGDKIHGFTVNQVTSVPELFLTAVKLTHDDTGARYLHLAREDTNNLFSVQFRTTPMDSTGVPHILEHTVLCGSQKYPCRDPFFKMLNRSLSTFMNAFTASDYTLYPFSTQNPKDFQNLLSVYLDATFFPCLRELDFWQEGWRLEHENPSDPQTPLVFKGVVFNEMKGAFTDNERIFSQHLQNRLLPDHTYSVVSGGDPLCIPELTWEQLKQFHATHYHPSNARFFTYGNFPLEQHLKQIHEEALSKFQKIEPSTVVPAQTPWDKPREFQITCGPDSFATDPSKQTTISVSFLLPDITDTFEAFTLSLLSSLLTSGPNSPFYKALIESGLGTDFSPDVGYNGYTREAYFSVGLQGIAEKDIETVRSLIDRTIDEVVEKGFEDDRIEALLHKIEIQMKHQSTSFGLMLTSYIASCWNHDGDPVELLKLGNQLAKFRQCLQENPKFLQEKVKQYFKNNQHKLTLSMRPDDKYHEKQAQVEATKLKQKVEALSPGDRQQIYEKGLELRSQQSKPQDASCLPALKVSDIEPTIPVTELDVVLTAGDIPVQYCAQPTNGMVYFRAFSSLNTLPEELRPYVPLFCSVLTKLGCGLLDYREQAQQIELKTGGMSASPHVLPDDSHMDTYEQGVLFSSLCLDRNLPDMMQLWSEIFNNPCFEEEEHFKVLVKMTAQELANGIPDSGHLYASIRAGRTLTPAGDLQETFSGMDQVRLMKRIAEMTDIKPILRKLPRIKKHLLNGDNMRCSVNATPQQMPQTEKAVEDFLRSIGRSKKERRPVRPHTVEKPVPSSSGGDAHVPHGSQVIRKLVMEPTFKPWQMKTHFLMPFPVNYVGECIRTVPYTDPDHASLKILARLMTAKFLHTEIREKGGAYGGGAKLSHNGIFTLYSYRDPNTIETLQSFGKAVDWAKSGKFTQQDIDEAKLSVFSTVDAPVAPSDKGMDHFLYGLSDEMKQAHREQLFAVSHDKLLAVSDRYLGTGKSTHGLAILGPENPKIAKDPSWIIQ
UniProt O14737, sequence (O14737 whole entry): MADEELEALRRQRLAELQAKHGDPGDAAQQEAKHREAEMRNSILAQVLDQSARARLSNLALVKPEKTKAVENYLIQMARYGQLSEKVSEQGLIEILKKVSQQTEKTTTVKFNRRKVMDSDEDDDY
UniProt Q9HB21, sequence (Q9HB21 whole entry): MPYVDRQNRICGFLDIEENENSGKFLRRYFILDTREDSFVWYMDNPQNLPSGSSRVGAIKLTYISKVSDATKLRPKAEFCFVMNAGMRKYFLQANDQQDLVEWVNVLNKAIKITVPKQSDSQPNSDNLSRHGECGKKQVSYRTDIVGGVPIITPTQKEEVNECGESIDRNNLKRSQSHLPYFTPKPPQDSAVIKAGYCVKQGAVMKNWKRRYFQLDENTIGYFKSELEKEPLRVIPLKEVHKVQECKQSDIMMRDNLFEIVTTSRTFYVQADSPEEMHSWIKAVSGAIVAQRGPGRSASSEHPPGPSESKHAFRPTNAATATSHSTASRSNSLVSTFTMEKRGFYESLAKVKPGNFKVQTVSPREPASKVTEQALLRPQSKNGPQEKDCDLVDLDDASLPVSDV
UniProt P54278, sequence (P54278 whole entry): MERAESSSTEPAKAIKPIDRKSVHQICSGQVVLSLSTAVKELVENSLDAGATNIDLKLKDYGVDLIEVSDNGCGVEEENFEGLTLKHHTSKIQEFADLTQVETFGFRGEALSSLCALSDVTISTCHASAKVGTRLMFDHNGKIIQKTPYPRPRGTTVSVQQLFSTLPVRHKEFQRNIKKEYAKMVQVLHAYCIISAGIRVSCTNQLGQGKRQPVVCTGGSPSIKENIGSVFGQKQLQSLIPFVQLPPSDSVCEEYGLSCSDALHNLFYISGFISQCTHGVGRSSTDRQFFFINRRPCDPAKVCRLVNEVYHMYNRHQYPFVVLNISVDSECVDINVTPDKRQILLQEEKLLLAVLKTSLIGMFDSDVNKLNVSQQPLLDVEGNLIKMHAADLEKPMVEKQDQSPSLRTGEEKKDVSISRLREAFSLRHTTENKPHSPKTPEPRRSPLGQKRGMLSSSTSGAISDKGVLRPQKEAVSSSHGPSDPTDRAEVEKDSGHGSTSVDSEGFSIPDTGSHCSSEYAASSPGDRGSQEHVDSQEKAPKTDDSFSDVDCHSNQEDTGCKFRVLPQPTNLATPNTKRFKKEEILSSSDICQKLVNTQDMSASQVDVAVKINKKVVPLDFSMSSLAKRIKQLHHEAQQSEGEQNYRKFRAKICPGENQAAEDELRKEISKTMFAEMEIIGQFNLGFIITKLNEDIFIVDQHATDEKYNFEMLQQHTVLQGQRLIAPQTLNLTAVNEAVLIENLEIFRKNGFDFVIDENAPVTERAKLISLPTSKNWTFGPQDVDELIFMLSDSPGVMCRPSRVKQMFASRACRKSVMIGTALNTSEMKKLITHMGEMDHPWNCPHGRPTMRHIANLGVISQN
UniProt O75688, sequence (O75688 whole entry): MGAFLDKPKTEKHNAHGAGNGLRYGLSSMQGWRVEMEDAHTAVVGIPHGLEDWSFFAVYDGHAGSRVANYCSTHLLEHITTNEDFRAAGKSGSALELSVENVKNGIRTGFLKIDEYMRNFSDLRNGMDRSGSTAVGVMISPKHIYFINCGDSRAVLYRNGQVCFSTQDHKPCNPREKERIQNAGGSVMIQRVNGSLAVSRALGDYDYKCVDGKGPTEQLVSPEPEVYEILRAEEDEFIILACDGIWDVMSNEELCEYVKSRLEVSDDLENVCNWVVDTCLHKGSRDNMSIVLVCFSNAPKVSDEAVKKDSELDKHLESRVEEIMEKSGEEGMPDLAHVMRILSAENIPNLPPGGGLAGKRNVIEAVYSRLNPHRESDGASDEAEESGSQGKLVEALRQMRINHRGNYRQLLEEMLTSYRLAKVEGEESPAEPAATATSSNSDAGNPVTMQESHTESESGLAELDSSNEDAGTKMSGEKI
UniProt P49593, sequence (P49593 whole entry): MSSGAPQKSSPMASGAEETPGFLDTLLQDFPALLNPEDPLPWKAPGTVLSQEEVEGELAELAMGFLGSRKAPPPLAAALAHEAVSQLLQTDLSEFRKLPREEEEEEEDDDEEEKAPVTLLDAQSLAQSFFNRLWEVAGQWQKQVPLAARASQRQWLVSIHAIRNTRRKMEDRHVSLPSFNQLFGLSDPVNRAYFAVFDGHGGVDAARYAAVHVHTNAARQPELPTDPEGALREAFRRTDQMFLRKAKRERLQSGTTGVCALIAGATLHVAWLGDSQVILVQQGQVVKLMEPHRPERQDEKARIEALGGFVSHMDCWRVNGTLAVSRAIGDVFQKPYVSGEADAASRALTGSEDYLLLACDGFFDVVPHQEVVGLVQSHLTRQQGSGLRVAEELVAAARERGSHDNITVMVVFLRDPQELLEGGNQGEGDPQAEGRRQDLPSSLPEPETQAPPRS
UniProt Q9UBV8, sequence (Q9UBV8 whole entry): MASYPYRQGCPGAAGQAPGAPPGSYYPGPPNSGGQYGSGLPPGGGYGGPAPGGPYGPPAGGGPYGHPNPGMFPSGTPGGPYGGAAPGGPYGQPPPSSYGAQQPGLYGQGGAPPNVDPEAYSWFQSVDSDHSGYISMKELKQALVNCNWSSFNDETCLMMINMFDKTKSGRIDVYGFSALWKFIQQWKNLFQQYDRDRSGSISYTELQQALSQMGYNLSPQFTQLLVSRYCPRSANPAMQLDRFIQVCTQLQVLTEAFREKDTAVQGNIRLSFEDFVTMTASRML
UniProt Q9H875, sequence (Q9H875 whole entry): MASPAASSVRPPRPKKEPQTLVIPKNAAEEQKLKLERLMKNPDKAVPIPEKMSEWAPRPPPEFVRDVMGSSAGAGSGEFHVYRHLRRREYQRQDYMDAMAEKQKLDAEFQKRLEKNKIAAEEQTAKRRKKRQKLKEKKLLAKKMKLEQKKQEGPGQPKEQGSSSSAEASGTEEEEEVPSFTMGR
UniProt P54619, sequence (P54619 whole entry): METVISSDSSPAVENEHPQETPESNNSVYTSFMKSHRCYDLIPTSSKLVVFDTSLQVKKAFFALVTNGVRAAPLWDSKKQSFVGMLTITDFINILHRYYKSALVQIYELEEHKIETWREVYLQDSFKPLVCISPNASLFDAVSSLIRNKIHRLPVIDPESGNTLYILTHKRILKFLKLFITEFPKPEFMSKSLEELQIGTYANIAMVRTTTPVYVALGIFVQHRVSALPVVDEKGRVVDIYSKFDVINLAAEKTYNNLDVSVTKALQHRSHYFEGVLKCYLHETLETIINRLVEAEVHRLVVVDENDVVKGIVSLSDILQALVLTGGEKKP
UniProt O15355, sequence (O15355 whole entry): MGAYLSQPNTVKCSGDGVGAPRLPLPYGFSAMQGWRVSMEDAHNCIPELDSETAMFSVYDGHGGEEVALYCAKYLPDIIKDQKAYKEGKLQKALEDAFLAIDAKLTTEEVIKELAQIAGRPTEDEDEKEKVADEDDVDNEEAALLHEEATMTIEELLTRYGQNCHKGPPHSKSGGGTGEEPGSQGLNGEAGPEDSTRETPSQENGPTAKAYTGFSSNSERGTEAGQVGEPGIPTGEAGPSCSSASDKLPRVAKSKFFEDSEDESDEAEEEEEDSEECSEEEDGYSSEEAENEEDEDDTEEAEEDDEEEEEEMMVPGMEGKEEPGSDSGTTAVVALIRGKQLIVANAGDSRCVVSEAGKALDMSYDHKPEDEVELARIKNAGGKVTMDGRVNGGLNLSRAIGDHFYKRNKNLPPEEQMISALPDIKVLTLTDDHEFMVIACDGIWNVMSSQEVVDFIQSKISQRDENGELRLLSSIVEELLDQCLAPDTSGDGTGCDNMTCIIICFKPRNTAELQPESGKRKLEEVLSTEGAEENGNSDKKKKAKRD
UniProt P07737, sequence (P07737 whole entry): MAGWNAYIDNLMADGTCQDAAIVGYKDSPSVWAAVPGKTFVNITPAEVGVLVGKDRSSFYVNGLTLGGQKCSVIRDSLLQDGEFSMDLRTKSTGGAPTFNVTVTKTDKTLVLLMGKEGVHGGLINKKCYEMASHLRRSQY

| Target | pEC50 |
| --- | --- |
| PAPSS1 (effect direction: stabilized) (UniProt O43252) | 3.65 |
| PCID2 (effect direction: stabilized) (UniProt Q5JVF3) | 3.02 |
| PCYT2 (effect direction: stabilized) (UniProt Q99447) | < 2.7 |
| PDCD2 (effect direction: stabilized) (UniProt Q16342) | 3.06 |
| PDK3 (effect direction: stabilized) (UniProt Q15120) | 2.84 |
| PEPD (effect direction: destabilized) (UniProt P12955) | < 2.7 |
| PFN1 (effect direction: stabilized) (UniProt P07737) | 3.57 |
| PFN2 (effect direction: stabilized) (UniProt P35080) | 3.51 |
| PGD (effect direction: stabilized) (UniProt P52209) | < 2.7 |
| PGGT1B (effect direction: stabilized) (UniProt P53609) | 3.47 |
| PGP (effect direction: destabilized) (UniProt A6NDG6) | < 2.7 |
| PHACTR4 (effect direction: stabilized) (UniProt Q8IZ21) | 4.03 |
| PHKG2 (effect direction: stabilized) (UniProt P15735) | 2.96 |
| PITRM1 (effect direction: stabilized) (UniProt Q5JRX3) | 3.09 |
| PLK1 (effect direction: stabilized) (UniProt P53350) | 3.69 |
| PM20D2 (effect direction: stabilized) (UniProt Q8IYS1) | 2.86 |
| PMS2 (effect direction: stabilized) (UniProt P54278) | 3.21 |
| POLR2E (effect direction: destabilized) (UniProt P19388) | 3.45 |
| POP1 (effect direction: destabilized) (UniProt Q99575) | < 2.7 |
| PPA1 (effect direction: destabilized) (UniProt Q15181) | 2.85 |
| PPM1B (effect direction: destabilized) (UniProt O75688) | 3.15 |
| PPP1R7 (effect direction: stabilized) (UniProt Q15435) | < 2.7 |
| PPP2CA (effect direction: destabilized) (UniProt P67775) | < 2.7 |
| PPT1 (effect direction: stabilized) (UniProt P50897) | 3.3 |
| PRKACB (effect direction: stabilized) (UniProt P22694) | 3.91 |
| PRKAR1B (effect direction: stabilized) (UniProt P31321) | 3.85 |
| PRKAR2A (effect direction: stabilized) (UniProt P13861) | 4.03 |
| PRKRIP1 (effect direction: destabilized) (UniProt Q9H875) | 2.81 |
| PRPF4B (effect direction: stabilized) (UniProt Q13523) | 3.18 |

Next, values leading:

| pEC50 | Target |
| --- | --- |
| 2.95 | PAPOLA (effect direction: stabilized) (UniProt P51003) |
| < 2.7 | PARN (effect direction: stabilized) (UniProt O95453) |
| 2.83 | PATL1 (effect direction: stabilized) (UniProt Q86TB9) |
| 3.45 | PC (effect direction: stabilized) (UniProt P11498) |
| < 2.7 | PCNA (effect direction: stabilized) (UniProt P12004) |
| 3.52 | PDCD5 (effect direction: destabilized) (UniProt O14737) |
| < 2.7 | PDCD6 (effect direction: destabilized) (UniProt O75340) |
| 3.17 | PDCD10 (effect direction: stabilized) (UniProt Q9BUL8) |
| 4.16 | PDCL3 (effect direction: destabilized) (UniProt Q9H2J4) |
| 2.86 | PEF1 (effect direction: destabilized) (UniProt Q9UBV8) |
| 3.17 | PELO (effect direction: stabilized) (UniProt Q9BRX2) |
| 3.49 | PES1 (effect direction: destabilized) (UniProt O00541) |
| 4.03 | PEX6 (effect direction: stabilized) (UniProt Q13608) |
| < 2.7 | PGAM1 (effect direction: destabilized) (UniProt P18669) |
| 3.75 | PGK1 (effect direction: stabilized) (UniProt P00558) |
| < 2.7 | PGM1 (effect direction: destabilized) (UniProt P36871) |
| < 2.7 | PHGDH (effect direction: stabilized) (UniProt O43175) |
| 2.87 | PHKA1 (effect direction: stabilized) (UniProt P46020) |
| 3.54 | PI4K2A (effect direction: stabilized) (UniProt Q9BTU6) |
| 2.72 | PIP4K2A (effect direction: stabilized) (UniProt P48426) |
| 2.94 | PLCG1 (effect direction: stabilized) (UniProt P19174) |

| pEC50 | Target |
| --- | --- |
| 3.32 | PLEKHA1 (effect direction: stabilized) (UniProt Q9HB21) |
| 3.17 | PLEKHF2 (effect direction: stabilized) (UniProt Q9H8W4) |
| < 2.7 | PLS1 (effect direction: stabilized) (UniProt Q14651) |
| 3.58 | PMVK (effect direction: stabilized) (UniProt Q15126) |
| 3.26 | POLG2 (effect direction: destabilized) (UniProt Q9UHN1) |
| 3.72 | POLR2C (effect direction: destabilized) (UniProt P19387) |
| < 2.7 | PPA2 (effect direction: destabilized) (UniProt Q9H2U2) |
| < 2.7 | PPM1F (effect direction: stabilized) (UniProt P49593) |
| < 2.7 | PPM1G (effect direction: stabilized) (UniProt O15355) |
| < 2.7 | PPM1H (effect direction: destabilized) (UniProt Q9ULR3) |
| < 2.7 | PPP2R1A (effect direction: stabilized) (UniProt P30153) |
| 3.09 | PPP3CA (effect direction: destabilized) (UniProt Q08209) |
| 3.06 | PPP3CB (effect direction: destabilized) (UniProt P16298) |
| 2.92 | PPP3CC (effect direction: destabilized) (UniProt P48454) |
| 2.94 | PRCP (effect direction: stabilized) (UniProt P42785) |
| < 2.7 | PRDX6 (effect direction: stabilized) (UniProt P30041) |
| 3.22 | PRKAB1 (effect direction: stabilized) (UniProt Q9Y478) |
| 3.27 | PRKAG1 (effect direction: stabilized) (UniProt P54619) |
| 3.5 | PRKCH (effect direction: stabilized) (UniProt P24723) |
| 3.33 | PRPS2 (effect direction: stabilized) (UniProt P11908) |
